Among the test systems are SN12C renal; SK-MEL-28 melanoma; CAKI-1 renal; RXF 393 renal; UACC-62 melanoma; UO-31 renal; TK-10 renal; HCC-2998 colon; K-562 leukemia; SF-539 CNS; BT-549 breast.
What all share (test): DTP human tumour cell line panel, 48 h

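Values below derive from 48-hour exposures of cells grown in 96-well plates, with endpoints linearly interpolated between the two concentrations bracketing the appropriate inhibition level. At the GI50, growth is halved. The concentration for full growth arrest is given as TGI.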

A word on the GI50: it is the concentration that inhibits growth by half. The term TGI denotes the concentration at which net growth stops. A lower TGI goes with more potent growth arrest. For the compound `CC(=O)[C@@H]1CCC=C2CC[C@]3(C)[C@@H](CC[C@@H]4[C@@]5(C)CCCNC(C)(C)[C@@H]5CC[C@]43C)[C@H]21`, the GI50 with SN12C renal is 1.79 µM; in the experiment on SK-MEL-28 melanoma it was 1.81 µM; in the experiment with CAKI-1 renal it was 1.81 µM; in the experiment with RXF 393 renal, 1.74 µM; in the experiment on UACC-62 melanoma, 1.73 µM; in the experiment on UO-31 renal it was 1.52 µM. The GI50 in the experiment on TK-10 renal was 1.88 µM. The TGI in the experiment with SN12C renal was found to be 3.31 µM; with SK-MEL-28 melanoma, 3.35 µM; in the experiment with CAKI-1 renal it was 3.22 µM; in the experiment on RXF 393 renal it was 3.32 µM; in the experiment on UACC-62 melanoma, 3.16 µM; with UO-31 renal it was 2.89 µM. The same compound registered a TGI with TK-10 renal of 3.45 µM.

With `Cc1c2c(cc3c1[nH]c1ccccc13)C=NCC2`, the TGI with HCC-2998 colon came to 46.8 µM; in the experiment with SN12C renal, 62.6 µM; in the experiment on SK-MEL-28 melanoma it was 16.8 µM; in the experiment on CAKI-1 renal, 31.6 µM; with RXF 393 renal it was 16.4 µM; in the experiment with UACC-62 melanoma, 21.5 µM. The TGI in the experiment on K-562 leukemia was 20.8 µM; in the experiment with UO-31 renal, 59.9 µM; in the experiment on SF-539 CNS, 11.9 µM.

For the compound `C=C1C(=O)OC2(C)C3CCC(C3)C12` (configuration not stated), the TGI in the experiment with HCC-2998 colon was above 100 µM; with SN12C renal, above 100 µM; with SK-MEL-28 melanoma it was above 100 µM; in the experiment on CAKI-1 renal, 99.4 µM; with UACC-62 melanoma, above 100 µM; with K-562 leukemia, above 100 µM. Besides, the total growth inhibition concentration (TGI) with UO-31 renal is above 100 µM; in the experiment on SF-539 CNS it was above 100 µM; in the experiment with TK-10 renal, 85.7 µM.

Consider `O=C(Nc1cccc(C(F)(F)F)c1)O/N=C(/Cl)CCl`, for which the TGI with HCC-2998 colon, in the experiment with SN12C renal, with SK-MEL-28 melanoma, in the experiment with CAKI-1 renal, in the experiment with K-562 leukemia and with UO-31 renal was above 100 µM each time. The TGI in the experiment with SF-539 CNS and in the experiment on TK-10 renal was above 100 µM each time.

Turning to `Cc1ccnc2[nH]c(-c3cccc(Cl)c3)cc(=O)c12`, the concentration for total growth inhibition (TGI) was above 43 µM with HCC-2998 colon; above 100 µM in the experiment with SN12C renal; above 100 µM in the experiment on SK-MEL-28 melanoma; above 47.8 µM in the experiment with CAKI-1 renal; above 100 µM in the experiment with RXF 393 renal; above 100 µM with UACC-62 melanoma. Also, the TGI in the experiment on UO-31 renal is above 70.2 µM; with TK-10 renal, above 100 µM.

Consider `C/C(=N/NC(=S)Nc1ccccc1Cl)c1cccc(/C(C)=N\NC(=S)Nc2ccccc2Cl)n1`, for which the total growth inhibition concentration (TGI) in the experiment with HCC-2998 colon, in the experiment on SN12C renal, in the experiment on SK-MEL-28 melanoma, with CAKI-1 renal, in the experiment on RXF 393 renal and with UACC-62 melanoma was above 100 µM in each case. Besides, the TGI in the experiment with K-562 leukemia, in the experiment on UO-31 renal, in the experiment on SF-539 CNS and with TK-10 renal was above 100 µM each time.

Turning to `CCCCCCCCCCCCCCCCSCC(COC)COP(=O)([O-])OCC[N+](C)(C)C` (configuration not stated), the concentration for total growth inhibition (TGI) in the experiment on HCC-2998 colon stood at 3.56 µM; with SN12C renal, 11.3 µM; in the experiment on SK-MEL-28 melanoma it was 29.5 µM; with CAKI-1 renal, 12.7 µM; in the experiment on RXF 393 renal, 15.5 µM; in the experiment on UACC-62 melanoma, 19.6 µM. Further, the TGI with K-562 leukemia came to 28 µM; with UO-31 renal it was 20.3 µM; in the experiment on SF-539 CNS, 29.7 µM.

Consider `CCN(CC)CCCOC(=O)/C=C/c1c(C)[nH]c(=O)[nH]c1=O`, for which the TGI in the experiment with HCC-2998 colon was above 625 µM; with SN12C renal, above 463 µM; in the experiment on SK-MEL-28 melanoma, above 625 µM; in the experiment on CAKI-1 renal it was above 625 µM; in the experiment with RXF 393 renal, above 99.1 µM; in the experiment with UACC-62 melanoma, above 625 µM. The total growth inhibition concentration (TGI) in the experiment on K-562 leukemia, in the experiment on UO-31 renal and in the experiment with SF-539 CNS was above 625 µM each time.

On to `C=CCOCn1cnc2c(N)ncnc21`, for which the TGI in the experiment on HCC-2998 colon, in the experiment with SN12C renal, with SK-MEL-28 melanoma, in the experiment with CAKI-1 renal, with UACC-62 melanoma and in the experiment with K-562 leukemia was above 100 µM throughout. Besides, the concentration for total growth inhibition (TGI) with UO-31 renal, in the experiment on SF-539 CNS and in the experiment on TK-10 renal was above 100 µM each time.

Take `CN(C(=O)Cc1ccc(Cl)c(Cl)c1)[C@H]1CCCC[C@@H]1[N+]1(C)CCCC1`: the TGI in the experiment on SN12C renal, in the experiment on SK-MEL-28 melanoma, with CAKI-1 renal, in the experiment on UACC-62 melanoma, with K-562 leukemia and with UO-31 renal was above 100 µM in each case. Moreover, the TGI in the experiment with SF-539 CNS, in the experiment on BT-549 breast and with TK-10 renal was above 100 µM in each case.

Take `CCOC(=O)Oc1cc2c(c(OC)c1OC)-c1ccc(SC)c(=O)cc1C(NC(=O)C(F)(F)F)CC2` (configuration not stated): the results for the GI50 with HCC-2998 colon and in the experiment on SN12C renal were 0.0146 µM and 0.0135 µM, respectively. The TGI in the experiment on SN12C renal is above 100 µM; in the experiment with SK-MEL-28 melanoma, above 100 µM; in the experiment with CAKI-1 renal it was 0.0928 µM; in the experiment on RXF 393 renal, below 0.001 µM; in the experiment on UACC-62 melanoma it was above 100 µM; in the experiment with K-562 leukemia, above 100 µM. The TGI with UO-31 renal came to 75.6 µM.

`Cc1cc(O)c2c(c1O)C(=O)C13C(=C2O)C(=O)C2C(O)C1C1C(O)C3C(=O)C3=C(O)c4c(O)cc(C)c(O)c4C(=O)C321` (configuration not stated): the TGI is 0.329 µM with HCC-2998 colon; 0.59 µM in the experiment with SK-MEL-28 melanoma; 0.696 µM with CAKI-1 renal; 0.295 µM in the experiment on RXF 393 renal; 0.56 µM with K-562 leukemia; 0.214 µM in the experiment on UO-31 renal. Further, in the experiment on SF-539 CNS, the concentration for total growth inhibition (TGI) was determined as 0.278 µM.

`C=C1C[C@@H](O)C[C@@]2(C)C[C@@H]3OC(=O)C(=C)[C@@H]3C[C@H]12`: the TGI came out at 14.2 µM in the experiment with HCC-2998 colon; 19.6 µM in the experiment with SN12C renal; 14 µM with SK-MEL-28 melanoma; 14.1 µM in the experiment on CAKI-1 renal; 20.3 µM in the experiment with RXF 393 renal; 21 µM in the experiment on UACC-62 melanoma. Moreover, the results for the TGI with K-562 leukemia, with UO-31 renal and in the experiment with SF-539 CNS were above 100 µM, 31.2 µM and 23.1 µM, respectively.

In the case of `O=c1[nH]nc(-c2ccccc2)n1/N=C/c1c[nH]c2ccccc12`, the TGI in the experiment with HCC-2998 colon, in the experiment on SN12C renal, in the experiment on SK-MEL-28 melanoma, in the experiment with CAKI-1 renal, in the experiment on RXF 393 renal and in the experiment with UACC-62 melanoma was above 100 µM throughout. Further, the TGI was above 100 µM in the experiment on K-562 leukemia, above 100 µM in the experiment on UO-31 renal, above 100 µM with SF-539 CNS and 75.6 µM with TK-10 renal.

With `CC(=O)OCC1OC(n2cc(F)c(=O)[nH]c2=O)C(N)C(OC(C)=O)C1OC(C)=O` (configuration not stated), the TGI with HCC-2998 colon, in the experiment with SN12C renal, in the experiment on CAKI-1 renal, with RXF 393 renal, in the experiment with UACC-62 melanoma and in the experiment with K-562 leukemia was above 100 µM in each case. Besides, the total growth inhibition concentration (TGI) in the experiment with UO-31 renal and in the experiment on SF-539 CNS was above 100 µM in each case.

(Values after PubChem BioAssay (NCI).)
